From patent US6919372B1, “Sustained release pharmaceutical compositions” (Yamanouchi Pharmaceutical Co., Ltd., priority 1997, dated 2005) come the findings set out here.

Structures can show the parent of a compound that is named as a salt.

Common to all, as to format: physicochemical
Data set [1] is described as follows: Test 2: octanol/phosphate buffer partition coefficient of BPS with various cations. To be noted: for PC of BPS, Equimolar amount: cation added to give equal charge; for PC of BPS, Excess × 20: cation added to give charges 20 times more; for effect of added compound on the partition coefficient of BPS (in words): octanol/phosphate buffer pH 7, compared to no ionic compound added. As to the method: (§1) BPS was dissolved in phosphate buffer solution having pH of 5 to 8 in a concentration of 240 μg/ml. Various cations were added to the mixtures to give equivalent charge to that of BPS or 5 times or 20 times more than that of BPS. The same volume of octanol as that of the aqueous phase was added to the mixture followed by shaking at 37° C. for an hour. After centrifugation, the concentration of the pharmaceutically active substance in the aqueous phase was measured to calculate the partition coefficient.
(§2) partition coefficient=concentration of the pharmaceutically active substance in the octanol phase/concentration of the pharmaceutically active substance in the aqueous phase
A variety of cations were examined with their effect if these cations would affect the partition coefficient of BPS in octanol/phosphate buffer solution (pH 7).
The pharmaceutically active substance was dissolved in an aqueous phase in a concentration of 240 μg/ml. Various cations were added to the solution to give equal charge to that of the pharmaceutically active substance or charges 20 times more than that of the substance. Then the same procedure as in Test 1 was applied to calculate the partition coefficient.

A short description of data set [2]: Test 1: effect of ratio of benzalkonium chloride added and pH on octanol/phosphate buffer partition coefficient of BPS. On the procedure: as §1, §2
Data set [3] in a line: Test 3: in vitro release test of gel preparation using various cations. To be noted: 10 ml phosphate buffer solution (pH 7.4) at 37° C. As to the method: Each of the gel preparations obtained in Examples 1 to 9 and Comparative Examples 1 to 3 was evaluated, respectively, with regard to the release of the active substance in 10 ml of a phosphate buffer solution (pH 7.4) at 37° C.

[4] abbreviates: octanol/phosphate buffer pH 7, 37° C., BPS 240 μg/ml.

Regarding `CC#CCC(C)[C@H](O)/C=C/[C@@H]1[C@H]2c3cccc(CCCC(=O)O)c3O[C@H]2C[C@H]1O` (relative stereo) [BPS, (±)-(1R*,2R*,3aS*,8bS*)-2,3,3a,8b-tetrahydro-2-hydroxy-1-[(e)-(3S*)-3-hydroxy-4-methyl-1-octen-6-ynyl]-1H-cyclopenta[b]benzofuran-5-butanoic acid, reference compound], the “PC of BPS, no cation added” value in data set [1] (octanol/phosphate buffer pH 7, 37° C., BPS 240 μg/ml, cation added: None) was determined as 16.2. The “partition coefficient of BPS as the pH increased” value in data set [2] (phosphate buffer pH 5 to 8, FIG. 1) is “decreased as the pH increased”.

As for `CCCCCCCCCCCCCCCCCCCCCC[N+](C)(C)C.[Cl-]` [Behenyltrimethylammonium chloride], in data set [1] (setting [4]), the “PC of BPS, Equimolar amount” value is 59.5. Regarding `CC(C)(C)CC(C)(C)c1ccc(OCCOCC[N+](C)(C)Cc2ccccc2)cc1` [Benzethonium chloride], in data set [1] (setting [4]), the “PC of BPS, Excess × 20” value is recorded as 1180 and the “PC of BPS, Equimolar amount” value amounted to 70.8. For `CCCCCCCCCCCCCCCC[N+](C)(C)C.[Cl-]` [Cetyltrimethylammonium chloride] the same measures were 935 and 91.6.

For the molecule `CCCCCCCCCCCC[N+](C)(C)Cc1ccccc1.[Cl-]` [Lauryldimethylbenzylammonium chloride], in data set [1] (setting [4]), the “PC of BPS, Excess × 20” value is given as 1220 and the “PC of BPS, Equimolar amount” value was found to be 71.2. In the case of `CCCCCCCCCCCC[n+]1ccccc1.[Cl-]` [Laurylpyridinium chloride], in data set [1] (setting [4]), the “PC of BPS, Excess × 20” value turned out to be 1200 and the “PC of BPS, Equimolar amount” value was 75.0. In the case of `CCCCCCCCCCCC[N+](C)(C)C.[Cl-]` [Lauryltrimethylammonium chloride], in data set [1] (setting [4]), the “PC of BPS, Excess × 20” value is 985 and the “PC of BPS, Equimolar amount” value stood at 83.5. Further, in data set [1], the “effect of added compound on the partition coefficient of BPS (in words)” value (“effect of added compound” below) is listed as “increase”.

With `CCN(CC)CC(=O)Nc1c(C)cccc1C` [Lidocaine hydrochloride, reference compound], in data set [1] (setting [4]), the “PC of BPS, Excess × 20” value amounted to 37.5 and the “PC of BPS, Equimolar amount” value is 17.1. For `CCCNC(C)(C)COC(=O)c1ccccc1` [Meprylcaine hydrochloride, reference compound], in data set [1] (setting [4]), the “PC of BPS, Excess × 20” value amounted to 53.3 and the “PC of BPS, Equimolar amount” value is recorded as 17.7. In data set [1], the “effect of added compound” value is reported as “increase”. For `CCCCCCCCCCCCCC[N+](C)(C)Cc1ccccc1.[Cl-]` [Myristyldimethylbenzylammonium chloride], in data set [1] (setting [4]), the “PC of BPS, Excess × 20” value was determined as 1210 and the “PC of BPS, Equimolar amount” value is 64.5. Take `CCCCCCCC[N+](C)(C)Cc1ccccc1.[Cl-]` [Octyldimethylbenzylammonium chloride]: in data set [1] (setting [4]), the “PC of BPS, Excess × 20” value was determined as 568 and the “PC of BPS, Equimolar amount” value is reported as 60.9. Take `CC(=O)O.CCCCCCCC/C=C\CCCCCCCCN` [Oleylamine acetate]: in data set [1] (setting [4]), the “PC of BPS, Excess × 20” value stood at 473 and the “PC of BPS, Equimolar amount” value is recorded as 30.4.

In the case of `CC(=O)O.CCCCCCCCCCCCCCCCCCN` [Stearylamine acetate], in data set [1] (setting [4]), the “PC of BPS, Excess × 20” value is reported as 158 and the “PC of BPS, Equimolar amount” value came to 32.6.

For `CCCCCCCCCCCCCCCCCC[N+](C)(C)Cc1ccccc1.[Cl-]` [Stearyldimethylbenzylammonium chloride], in data set [1] (setting [4]), the “PC of BPS, Excess × 20” value is 1350 and the “PC of BPS, Equimolar amount” value was 62.3. For `CCCCCCCCCCCCCCCCCC[N+](C)(C)C.[Cl-]` [Stearyltrimethylammonium chloride] the same measures were 995 and 83.4. In the case of `CCCC[N+](CCCC)(CCCC)Cc1ccccc1.[Cl-]` [Tributylbenzylammonium chloride], in data set [1] (setting [4]), the “PC of BPS, Excess × 20” value came to 140 and the “PC of BPS, Equimolar amount” value is recorded as 24.5.

As for `CC[N+](CC)(CC)Cc1ccccc1.[Cl-]` [Triethylbenzylammonium chloride], the “effect of added compound” value in data set [1] is recorded as “increase”. On to `Cl.N=C(N)NCCC[C@H](N)C(=O)O` [arginine hydrochloride, reference compound], for which, in data set [1], the “effect of added compound” value is reported as “no increase”. In data set [3], the “release of the active substance from gel preparation” value is recorded as “no delayed release”. Regarding `[Cl-].[Cl-].[Mg+2]` [magnesium chloride, reference compound], the “effect of added compound” value in data set [1] is given as “no increase”. As to `O=S(=O)([O-])[O-].[Mg+2]` [magnesium sulfate], the “release of the active substance from gel preparation” value in data set [3] is reported as “no delayed release”. For the molecule `[Cl-].[Na+]` [sodium chloride], the “partition coefficient of BPS when sodium chloride was added to make the solution isotonic” value in data set [2] (20 times of equivalent molar ratio of benzalkonium chloride included) is given as “decreased”. Turning to `CCCCCCCCCCCCOS(=O)(=O)[O-].[Na+]` [sodium lauryl sulfate, reference compound], the “effect of added compound” value in data set [1] is given as “no change”. Consider protamine sulfate [reference compound], for which the “effect of added compound” value in data set [1] is “did not affect”. For the molecule “sorbitan sesquioleate [reference compound]”, the “effect of added compound” value in data set [1] was “no change”.
